Laboratory results from US20190248834A1, “ENDOMORPHIN-2, TETRAPEPTIDE DERIVATIVES THEREOF, AND USES THEREOF” (priority 2016, published 2019).
*: point of attachment. NHPhenethyl = c1ccc(CCN*)cc1; NHBn = c1ccc(CN*)cc1; Propionyl = CCC(=O)*; NHiPr = CC(C)N*; NHNH2 = NN*; NHOH = ON*

What was measured:
Assay type in all cases: in vivo, human
[1] = tested on: psoriatic arthritis of interphalangeal joints of the fingers; assay: Example 93: multiple derivatives evaluated for relief of pain associated with psoriatic arthritis, topical; conditions: 0.8% (w/v) in WEP442, topical to both hands
Excerpt: A subject with extensive plaque psoriasis and psoriatic arthritis of interphalangeal joints of the fingers evaluated multiple tetrapeptide derivatives for comparative effectiveness on relief of their painful fingers. Over the course of 4 weeks, this subject evaluated the analgesic efficacy of ten (10) endomorphin-2 tetrapeptide derivatives in WEP442 at a concentration of 0.8% (w/v) applied topically to both hands, which included all fingers.

[2] = tested on: periostitis of right upper tibia, osteoarthritis of left knee, left hip joint pain, lower back pain; assay: Example 87: pain relief at multiple sites in one subject, topical; conditions: for degree of analgesic effect / duration of pain relief / pain relief at the treated sites / time to pain relief: 0.8% (w/v) in WEP442, topical to the sites of pain
Excerpt: A caregiver subject, presented with (a) painful periostitis of the right upper tibia for about 3 months, (b) painful early osteoarthritis of the left knee for about 1 year, (c) painful left hip joint of about 6 months, and (d) lower back pain near the end of the work day for about 2 years.
Over the course of 16 days, this subject evaluated the analgesic efficacy of eight (8) endomorphin-2 tetrapeptide derivatives in WEP442 at a concentration of 0.8% (w/v) applied topically to the sites of pain.
The lower back pain returned toward the end of the following work day.
Relief of lower back pain lasted for 20-24 hours (4+ effect). […]
For the above same subject, the composition containing 0.8% (w/v) of N-Ac-Tyr-Pro-Phe-Phe-NHCH(CH3)2 (SEQ ID NO: 27) in WEP442 was topically applied to the right upper tibia, left knee and left hip.
For the above same subject, the composition containing 0.8% (w/v) of N-Fo-Tyr-Pro-Phe-Phe-NH2 (SEQ ID NO: 104) in WEP442 was topically applied to 3 sites. Relief of pain was variable. […] Relief of pain in the right upper tibia was complete in about 4 minutes, lasting for 12 hours.
For the above same subject, the composition containing 0.8% (w/v) of N-Bz-Tyr-Pro-Phe-Phe-NH2 (SEQ ID NO: 84) in WEP442 provided relief of pain within 2-4 minutes. On the left hip, the relief was complete, lasting for about 12 hours (4+ effect). On the left knee, relief was incomplete, about 50%, lasting for only about 3 hours (2+ effect). On the right upper tibia, relief was complete and lasted for about 12 hours (4+ effect).

[3] = tested on: severe osteoarthritis of both knees; assay: Example 88: analgesic efficacy of eight derivatives on severe osteoarthritis, topical
Experimental: A subject with severe osteoarthritis of both knees for a duration of about 7 years evaluated numerous tetrapeptide derivatives over the past years. […] Over the course of 3 weeks, this subject evaluated the analgesic efficacy of eight (8) endomorphin-2 tetrapeptide derivatives in WEP442 at a concentration of 1% (w/v) applied topically to the knees.
Reapplication at the end of that time again provided the same effect. Application at bedtime provided relief of pain for 7 hours. The same results were achieved the next day (3+ to 4+ effect).
A second application, about 15 minutes later, provided somewhat more relief (2+ effect).
Application at 9:30 p.m. provided relief until 5:30 a.m., and similar results were achieved the next day (3+ to 4+ effect).
No modification of pain in the right knee, which had received application of vehicle WEP442 as a control, was detected. Application of the composition containing the tetrapeptide derivative to the right knee about 15 minutes later provided prompt relief of pain. Pain relief in both knees lasted for about 5 hours (3+ to 4+ effect).
Relief lasted for about 3 hours. Re-application at that time provided the same degree of pain relief in about 5 minutes, which lasted about another 3 hours (2+ effect).
For the above same subject, the composition containing 1% (w/v) of N-Fo-Tyr-Pro-Phe-Phe-NH2 (SEQ ID NO: 104) in WEP442 was applied to the left knee, and the composition containing 1% (w/v) of N-Bz-Tyr-Pro-Phe-Phe-NH2 (SEQ ID NO: 84) in WEP442 was applied to the right knee moments later. Relief of pain in both knees seemed equivalent, was detectable in 5-7 minutes and lasted for about 4 hours. This procedure was repeated the next day with about the same results. The degree of pain relief from both solutions was rated as 3+ effect.

[4] = 1% (w/v) in WEP442, topical to the knees

N-Ac-Tyr-Pro-Phe-Phe-NHCH2C6H5 (Ac-YPFF-NHBn; SMILES CC(=O)N[C@@H](Cc1ccc(O)cc1)C(=O)N1CCC[C@H]1C(=O)N[C@@H](Cc1ccccc1)C(=O)N[C@@H](Cc1ccccc1)C(=O)NCc1ccccc1)
duration of pain relief [1]: about 6 hours
pain relief [1]: substantial relief of pain
time to pain relief [1]: 3 to 5 min
degree of analgesic effect [2]: 4+
duration of pain relief [2]: ≥ 5 h
pain relief at the treated sites [2]: complete relief of pain
time to pain relief [2]: 3 to 4 min
analgesic effect grade ([3]; 1% (w/v) in WEP442, second application about 15 minutes later): 2+ (2+ (50%): substantial but incomplete relief of pain for less than 4 hours)
analgesic effect grade [3, 4]: 1+ (1+ (25%): partial relief of pain for less than 4 hours)
pain relief [3, 4]: little relief of pain

N-Ac-Tyr-Pro-Phe-Phe-NHCH2CH2C6H5 (Ac-YPFF-NHPhenethyl; SMILES CC(=O)N[C@@H](Cc1ccc(O)cc1)C(=O)N1CCC[C@H]1C(=O)N[C@@H](Cc1ccccc1)C(=O)N[C@@H](Cc1ccccc1)C(=O)NCCc1ccccc1)
degree of analgesic effectiveness [1]: 0 (zero represented no relief)
pain relief [1]: no detectable analgesic effect
degree of analgesic effect [2]: 0 (zero represented no relief)
pain relief at the treated sites [2]: no detectable analgesic effect
analgesic effect grade [3, 4]: 0
pain relief [3, 4]: no detectable analgesic effect

N-Ac-Tyr-Pro-Phe-Phe-NHCH2CH3 (Ac-YPFF-NHEt; SMILES CCNC(=O)[C@H](Cc1ccccc1)NC(=O)[C@H](Cc1ccccc1)NC(=O)[C@@H]1CCCN1C(=O)[C@H](Cc1ccc(O)cc1)NC(C)=O)
degree of analgesic effectiveness [1]: 4+
duration of pain relief [1]: about 7 hours
pain relief [1]: complete relief of pain
time to pain relief [1]: 1 to 2 min
degree of analgesic effect [2]: 4+
duration of pain relief [2]: ≥ 5 h
pain relief at the treated sites [2]: complete relief of pain
time to pain relief [2]: 3 to 4 min
duration of pain relief ([3]; 1% (w/v) in WEP442, application at bedtime): 7 h
duration of pain relief [3, 4]: 3 to 4 h
pain relief [3, 4]: very good relief of pain
time to pain relief [3, 4]: 3 to 5 min

N-Ac-Tyr-Pro-Phe-Phe-NHCH(CH3)2 (Ac-YPFF-NHiPr; SMILES CC(=O)N[C@@H](Cc1ccc(O)cc1)C(=O)N1CCC[C@H]1C(=O)N[C@@H](Cc1ccccc1)C(=O)N[C@@H](Cc1ccccc1)C(=O)NC(C)C)
duration of pain relief [1]: 2 to 3 h
pain relief [1]: only minimal relief of pain
time to pain relief [1]: 5 to 6 min
duration of pain relief, right upper tibia ([2]; 0.8% (w/v) in WEP442, periostitis of right upper tibia): 7 h
degree of analgesic effect [2]: 4+
duration of pain relief [2]: at least 4 hours
pain relief at the treated sites [2]: Complete relief of pain
time to pain relief [2]: 3 to 4 min
analgesic effect grade [3, 4]: 2+ (2+ (50%): substantial but incomplete relief of pain for less than 4 hours)
duration of pain relief [3, 4]: about 3 hours
pain relief [3, 4]: moderate relief of pain
time to pain relief [3, 4]: ≤ 15 min

N-Pa-Tyr-Pro-Phe-Phe-NHNH2 (Propionyl-YPFF-NHNH2; SMILES CCC(=O)N[C@@H](Cc1ccc(O)cc1)C(=O)N1CCC[C@H]1C(=O)N[C@@H](Cc1ccccc1)C(=O)N[C@@H](Cc1ccccc1)C(=O)NN)
degree of analgesic effectiveness [1]: 4+
duration of pain relief [1]: about 7 hours
pain relief [1]: complete relief of pain
time to pain relief [1]: 2 to 3 min

N-Pa-Tyr-Pro-Phe-Phe-NHOH (Propionyl-YPFF-{NHOH}; SMILES CCC(=O)N[C@@H](Cc1ccc(O)cc1)C(=O)N1CCC[C@H]1C(=O)N[C@@H](Cc1ccccc1)C(=O)N[C@@H](Cc1ccccc1)C(=O)NO)
degree of analgesic effectiveness [1]: 4+
duration of pain relief [1]: about 7 hours
pain relief [1]: complete relief of pain
time to pain relief [1]: 2 to 3 min
